Values after ≈ are worked out from the molar mass of the structure shown. Read-outs that look alike come from different tables or passages of the source. Values belong to the compound of their own block, whether it stands above or below them.
Key:
[1] = LYSA solubility study; assay type: physicochemical; details: for LYSA of Active Forms: 0.05 M phosphate buffer pH 6.5; for solubility thermodynamic: 0.05 M phosphate buffer, pH 6.5, aqueous buffer, thermodynamic from solid
Method: LYSA study is used to determine the aqueous solubility of tested compounds. Samples were prepared in duplicate from 10 mM DMSO stock solution. After evaporation of DMSO with a centrifugal vacuum evaporator, the compounds were dissolved in 0.05 M phosphate buffer (pH 6.5), stirred for one hour and shaken for two hours. After one night, the solutions were filtered using a microtiter filter plate. Then the filtrate and its 1/10 dilution were analyzed by HPLC-UV. […] The results were in μg/mL. In case the percentage of sample measured in solution after evaporation divided by the calculated maximum of sample amount was bigger than 80%, the solubility was reported as bigger than this value.

[2] = test system: cell lines originating from hepatocellular carcinoma and cholangiocarcinoma; test: Direct treatment of tumor cell lines, cell counts by nuclei imaging; assay type: cell-based; details: 27 μM down to 270 pM, 72, 120 and 148 hours, relative to DMSO control
Method: Cell lines derived from hepatocellular carcinoma and cholangiocarcinoma (EGI1 and OZ) were maintained and tested in the following media: Huh7 and EGI1 were cultured in DMEM 4.5 g/L glucose (Gibco, Cat #31966-021), 10% FCS (GIBCO, Cat #10500-064 Lot 07G3690K), 2 mM L-glutamine (Thermo Fischer, Cat #25030081), 1 mM sodium pyruvate (GIBCO Cat #11360-039). Hep3B and HepG2 were cultivated in Eagles MEM+Earle's BSS (PAN, Cat # P04-08510), 10% FCS, 2 mM L-glutamine, 0.1 mM NEAA (PAN Cat # P08-32100) and 1 mM sodium pyruvate. JHH1, JHH5, JHH6 and OZ were cultivated in Williams'E (PAN Cat # P04-29050), 10% FCS and 2 mM L-glutamine. JHH2 was cultivated using Williams'E, 10% FCS and 2 mM L-glutamine. HLE was cultivated in DMEM 4.5 g/L glucose, 10% FCS and 2 mM L-glutamine. HLF was cultivated in DMEM 4.5 g/L glucose, 5% FCS, 0.1 mM NEAA and 2 mM L-glutamine. JHH4 was cultivated in Eagles MEM+Earle's BSS, 10% FCS and 2 mM L-glutamine. SkHep1 was cultivated in Eagles MEM+Earle's BSS, 10% FCS, 2 mM L-glutamine, 0.1 mM NEAA and 1 mM sodium pyruvate. SNU449 was cultivated using RPMI 1640 (PAN Cat # P04-18047) 10% FCS and 2 mM L-glutamine. […]
Tumor cell counts were determined using Perkin Elmer Operetta Imaging System and Harmony Software by counting nuclei stained for 20 minutes in full media using Hoechst33342 dye (2 μg/ml, Sigma Cat # B2261). […]

[3] = target: T1, human TLR7 (Homo sapiens, UniProt Q9NYK1); test: HEK293-Blue-hTLR-7 cells assay (SEAP reporter); assay type: cell-based; details: for EC50: SEAP reporter, 20 hrs
T1 sequence (Q9NYK1 27-1049): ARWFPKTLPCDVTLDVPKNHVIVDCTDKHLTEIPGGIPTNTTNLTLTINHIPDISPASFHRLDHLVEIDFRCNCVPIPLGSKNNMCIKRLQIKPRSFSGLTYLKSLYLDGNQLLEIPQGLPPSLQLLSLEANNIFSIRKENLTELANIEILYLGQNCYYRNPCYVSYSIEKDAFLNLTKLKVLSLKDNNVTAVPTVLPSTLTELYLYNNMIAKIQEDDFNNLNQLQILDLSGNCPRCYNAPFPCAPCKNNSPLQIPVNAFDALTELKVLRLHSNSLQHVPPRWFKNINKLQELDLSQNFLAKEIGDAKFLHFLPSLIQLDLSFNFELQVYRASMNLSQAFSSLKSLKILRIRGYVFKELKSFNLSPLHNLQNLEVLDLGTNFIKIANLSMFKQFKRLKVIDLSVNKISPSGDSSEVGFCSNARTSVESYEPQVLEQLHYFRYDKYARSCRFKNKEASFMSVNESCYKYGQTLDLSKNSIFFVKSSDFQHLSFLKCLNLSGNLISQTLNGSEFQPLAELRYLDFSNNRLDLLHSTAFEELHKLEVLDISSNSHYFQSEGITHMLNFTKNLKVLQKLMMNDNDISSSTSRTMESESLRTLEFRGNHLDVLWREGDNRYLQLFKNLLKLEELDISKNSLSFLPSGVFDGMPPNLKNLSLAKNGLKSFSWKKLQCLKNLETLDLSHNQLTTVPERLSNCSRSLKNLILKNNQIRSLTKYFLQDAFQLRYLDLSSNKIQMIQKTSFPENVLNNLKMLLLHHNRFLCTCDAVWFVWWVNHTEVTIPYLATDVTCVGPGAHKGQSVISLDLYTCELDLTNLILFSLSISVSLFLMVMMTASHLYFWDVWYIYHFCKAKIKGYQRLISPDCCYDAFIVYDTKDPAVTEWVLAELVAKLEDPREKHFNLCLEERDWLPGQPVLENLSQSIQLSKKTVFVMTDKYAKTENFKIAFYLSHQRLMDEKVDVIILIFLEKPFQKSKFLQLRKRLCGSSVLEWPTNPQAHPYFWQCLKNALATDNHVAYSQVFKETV
Text: HEK293-Blue-hTLR-7 cells assay: A stable HEK293-Blue-hTLR-7 cell line was purchased from InvivoGen (Cat. #: hkb-htlr7, San Diego, Calif., USA). These cells were designed for studying the stimulation of human TLR7 by monitoring the activation of NF-κB. A SEAP (secreted embryonic alkaline phosphatase) reporter gene was placed under the control of the IFN-β minimal promoter fused to five NF-κB and AP-1-binding sites. The SEAP was induced by activating NF-κB and AP-1 via stimulating HEK-Blue hTLR7 cells with TLR7 ligands. Therefore the reporter expression was regulated by the NF-κB promoter upon stimulation of human TLR7 for 20 hrs. The cell culture supernatant SEAP reporter activity was determined using QUANTI-Blue™ kit (Cat. #: rep-qbl, Invivogen, San Diego, Ca, USA) at a wavelength of 640 nm, a detection medium that turns purple or blue in the presence of alkaline phosphatase. […] Then 20 μL of the supernatant from each well was incubated with 180 μL Quanti-blue substrate solution at 37° C. for 2 hrs and the absorbance was read at 620-655 nm using a spectrophotometer. The signalling pathway that TLR7 activation leads to downstream NF-κB activation has been widely accepted, and therefore similar reporter assay was also widely used for evaluating TLR7 agonist (Tsuneyasu Kaisho and Takashi Tanaka, Trends in Immunology, Volume 29, Issue 7, July 2008, […]; Hiroaki Hemmi et al, Nature Immunology 3, 196-200 (2002)). The Compounds and Examples of the present invention were tested in HEK293-hTLR-7 assay for their TLR7 agonism activity as described herein and results are listed in Table 1. […] The calculated ratio of EC50(prodrug)/EC50(active form) were within the range from 32 to about 7600.

[4] = test system: iAST mouse model of hepatocellular carcinoma; test: iAST mouse model of hepatocellular carcinoma, tumor burden; details: iAST mice, Sorafenib 90 mg/kg daily
Method: Per group n=10 were analyzed by One-way ANOVA and Tukey correction shown as individual dots with means±SEM using GraphPad Prism software version 6.

[5] = test system: immune cell infiltrate in iAST tumor; test: Leukocyte infiltrate of iAST tumors by flow cytometry; assay type: in vivo, mouse; details: day 12 after treatment start
Method: Tumors from iAST mice were treated as described in FIG. 1. […] For flow cytometry, tumors were excised and single cell suspensions obtained by mechanical processing and enzymatic digestion (DNAse 0.01%, Collagenase IV 1 mg/ml). Staining procedures started with Fc receptor blocking using 2.4G2 antibody clone (1:200 dilution, BD Bioscience), and the following antibodies (clones) were used to analyzed leukocyte infiltrate: CD45-FITC (30-F11, BioLegend) and CD11b-BUV737 (M1/70, BD Bioscience). Samples were acquired using a LSR Fortessa machine (BD Bioscience) and analyzed by FlowJo version 10 (Treestar).

[6] = corresponding active form, read-out: HEK293-hTLR-7 EC50 (Active form)

SMILES: CC[S@@](=N)(=O)c1nc(N)c2[nH]c(=O)n(Cc3ccc(Cl)cc3)c2n1 (single isomer, unassigned) [Compound 41c-B, 6-amino-9-[(4-chlorophenyl)methyl]-2-(ethylsulfonimidoyl)-7H-purin-8-one]
tumor cell proliferation upon direct treatment [2]: None of the cell lines tested showed a significant increase in proliferation | tumor cell proliferation upon direct treatment ([2]; listed as compound 41c-B): does not induce enhanced tumor cell proliferation

SMILES: CC[S@@](=N)(=O)c1nc(N)c2[nH]c(=O)n(Cc3ccc(Br)cc3)c2n1 (single isomer, unassigned) [Compound 47e-A, 6-Amino-9-[(4-bromophenyl)methyl]-2-(ethylsulfonimidoyl)-7H-purin-8-one]
EC50 [3, 6]: 21 nM

SMILES: CCCN(C)C(=O)n1c(=O)n(Cc2ccc(Br)cc2)c2nc([S@](=N)(=O)CC)nc(N)c21 (single isomer, unassigned) [Example 47-A]
EC50 ([3]; prodrug, read-out: HEK293-hTLR-7 EC50 (Prodrug)): 10900 nM | solubility thermodynamic ([1]; read-out: LYSA of Prodrugs): 154 µg/mL (≈ 302 µM)

SMILES: CCC[S@](=N)(=O)c1nc(N)c2c(n1)n(Cc1ccc(C)cc1)c(=O)n2C(=O)N(C)CCOC [Example 38-A, 6-Amino-N-(2-methoxyethyl)-N-methyl-8-oxo-2-[S(S)-propylsulfonimidoyl]-9-(p-tolylmethyl)purine-7-carboxamide]
Ratio (EC50(prodrug)/EC50(active form)) [3]: 1378.9

SMILES: CNC(=O)c1cc(Oc2ccc(NC(=O)Nc3ccc(Cl)c(C(F)(F)F)c3)cc2)ccn1 [Sorafenib, 4-{4-[3-(4-Chlor-3-trifluormethylphenyl)ureido]phenoxy}pyridin-2-carbonsäuremethylamid]
efficacy in monotherapy (total liver and tumor weights) [4]: highly effective | Examination of the liver for superficial tumor nodules (tumor nodule free) ([4]; day 12 after treatment start, 41-A 10 mg/kg once a week oral): 0/10 tumor nodule free | overall lymphoid and myeloid composition of the tumors [5]: changes were clearly driven by Sorafenib

Continued, values first:

LYSA of Active Forms [1]: 56 µg/mL
SMILES: CCCS(=N)(=O)c1nc(N)c2[nH]c(=O)n(Cc3ccccc3)c2n1 (single isomer, unassigned) [Compound 1e-A, 6-amino-9-benzyl-2-(propylsulfonimidoyl)-7H-purin-8-one]

solubility thermodynamic ([1]; read-out: LYSA of Active Forms): 50 µg/mL (≈ 144 µM)
SMILES: CCCS(=N)(=O)c1nc(N)c2[nH]c(=O)n(Cc3ccccc3)c2n1 (single isomer, unassigned) [Compound 1e-B, 6-amino-9-benzyl-2-(propylsulfonimidoyl)-7H-purin-8-one]

solubility thermodynamic ([1]; read-out: LYSA of Active Forms): 6 µg/mL (≈ 16.6 µM)
SMILES: CCCS(=N)(=O)c1nc(N)c2[nH]c(=O)n(Cc3ccc(C)cc3)c2n1 (single isomer, unassigned) [Compound 36g-A, 6-Amino-2-(propylsulfonimidoyl)-9-(p-tolylmethyl)-7H-purin-8-one]

LYSA of Active Forms [1]: 11 µg/mL
SMILES: CCCS(=N)(=O)c1nc(N)c2[nH]c(=O)n(Cc3ccc(C)cc3)c2n1 (single isomer, unassigned) [Compound 36g-B, 6-Amino-2-(propylsulfonimidoyl)-9-(p-tolylmethyl)-7H-purin-8-one]

EC50 [3, 6]: 25 nM
SMILES: CC[S@@](=N)(=O)c1nc(N)c2[nH]c(=O)n(Cc3ccc(Br)cc3)c2n1 (single isomer, unassigned) [Compound 47e-B, 6-Amino-9-[(4-bromophenyl)methyl]-2-(ethylsulfonimidoyl)-7H-purin-8-one]
